From patent publication US9315459B2, “Crystalline forms of 4-[2-(4-methylphenylsulfanyl)-phenyl] piperidine” (priority 2006, dated 2016)

How the values were obtained:
[1] = target: T1, human alpha1A-7 receptors (Homo sapiens, UniProt P35348); test: Functional assay, adrenaline evoked release of Ca2+ in CHO cells expressing human alpha1A-7 receptors; type: cell-based
T1 construct: expressed in transfected cells; host or cells: CHO cells
T1 sequence (P35348 1-466): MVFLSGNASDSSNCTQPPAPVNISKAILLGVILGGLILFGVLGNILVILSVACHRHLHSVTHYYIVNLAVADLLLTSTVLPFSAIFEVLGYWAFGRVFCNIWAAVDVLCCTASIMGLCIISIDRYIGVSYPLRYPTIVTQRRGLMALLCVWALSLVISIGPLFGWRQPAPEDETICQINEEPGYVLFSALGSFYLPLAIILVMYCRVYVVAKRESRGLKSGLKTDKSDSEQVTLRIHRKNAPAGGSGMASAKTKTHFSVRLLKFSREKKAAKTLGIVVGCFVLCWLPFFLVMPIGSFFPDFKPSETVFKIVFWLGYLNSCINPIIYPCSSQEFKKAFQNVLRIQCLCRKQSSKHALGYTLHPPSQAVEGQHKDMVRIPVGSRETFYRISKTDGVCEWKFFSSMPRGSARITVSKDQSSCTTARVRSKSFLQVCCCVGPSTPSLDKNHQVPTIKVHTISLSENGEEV
Procedure: These experiments were carried out essentially as described below. All cells were cultured in DMEM medium supplemented with 10% BCS, 4 mM L-glutamine (or 2 mM in the case of COS-7), and 100 units/ml penicillin plus 100 μg/ml streptomycin, at 37° C., in 5% CO2. Twenty-four hours prior to assays, CHO cells expressing the human alpha1A-7 receptors were seeded into 384-well black wall microtiter plates coated with poly-D-lysine. […] After excess dye was discarded, cells were washed in assay buffer and layered with a final volume equal to 45 μl/well (or 30 ul/well for antagonist assay). […] Basal fluorescence was monitored in a fluorometric imaging plate reader or FLIPR™ from Molecular Devices (Sunnyvale, Calif.) with an excitation wavelength of 488 nm and an emission range of 500 to 560 nm. Laser excitation energy was adjusted so that basal fluorescence readings were approximately 8,000 relative fluorescent units (RFU). Cells were then stimulated at room temperature with agonists diluted in assay buffer (15 μl), and RFU were measured at 1.5 second intervals over a period of 2.5 min. Maximum change in fluorescence was calculated for each well. Concentration-response curves derived from the maximum change in fluorescence were analyzed by nonlinear regression (Hill equation).

[2] = system: extracellular levels of acetylcholine; test: Microdialysis, extracellular acetylcholine in prefrontal cortex of freely-moving rats (Example 2F); type: in vivo, rat; conditions: Wistar rats, s.c., FIG. 24
Procedure: The experiment was designed to evaluate the effects of compounds of the present invention on extracellular levels of acetylcholine in the prefrontal cortex of freely-moving rats.
Male Wistar rats (280-350 g; Harlan, Zeist, The Netherlands) were used for the experiments. Rats were individually housed in plastic cages (30×30×40 cm) and had ad libitum access to food and water.
Rats were anesthetized using isoflurane (2%, 400 mL/min N2O, 400 ml/min O2). Lidocain (10% m/v) was used for local anesthesia. […]
Experiments were carried out 24-48 hours after surgery. […] Samples were collected by an automated fraction collector (CMA 142), and stored at −80° C. until analyzed. […]
Concentrations of acetylcholine were determined by HPLC with tandem mass spectrometry (MS/MS) detection. […]
The LC/MS analyses were performed using an API 4000 MS/MS system consisting of an API 4000 MS/MS detector and a Turbo Ion Spray interface (both from Applied Biosystems, the Netherlands). […] Data were calibrated and quantitated using the Analyst™ data system (Applied Biosystem, version 1.2).
Two consecutive microdialysis samples with less then 50% variation were taken as baseline levels and set at 100%. Changes in acetylcholine concentration were expressed as percent of baseline within the same subject.

C57/B6 mice = test: Formalin model of neuropathic pain, time spent licking the injured paw; type: in vivo; conditions: summary in words of table 4
Procedure: The irritation caused by the formalin injection elicits a characteristic biphasic behavioural response, as quantified by the amount of time spent licking the injured paw. The first phase (˜0-10 minutes) represents direct chemical irritation and nociception, whereas the second (˜20-30 minutes) is thought to represent pain of neuropathic origin. The two phases are separated by a quiescent period in which behaviour returns to normal. Measuring the amount of time spent licking the injured paw in the two phases assesses the effectiveness of test compounds to reduce the painful stimuli. Eight C57/B6 mice (ca. 25 g) were tested per group. Table 4 below show the amount of time spent licking the injured paw in the two phases, i.e. 0-5 minutes and 20-30 minutes post formalin injection. The amount of compound administered is calculated as the free base.

Cc1ccc(Sc2ccccc2C2CCNCC2)cc1 [compound I, 4-[2-(4-methylphenylsulfanyl)-phenyl]piperidine]
Functional profile, adrenaline evoked release of Ca2+ [1]: antagonists | Extracellular level of acetylcholine [2]: increase | Effect in the first phase (direct chemical irritation and nociception) (C57/B6 mice): little effect | Effect in the second phase (time spent licking paws) (C57/B6 mice): clear and dose dependent decrease
